From patent publication US5723165A, “Aspartyldipeptide derivatives and sweetener compositions containing the same” (Ajinomoto Co., Inc., priority 1994, dated 1998)

Assays:
[1] = Sensory evaluation of sweetness potency relative to sugar; settings: for Sweetness Potency: Table 1, based on an aqueous solution of 4% sucrose having a sweetness potency of 1 (one); for sweetness potency value: sensory evaluation, running text
[2] = tested on: ICR male mice; settings: oral administration of 2.0 g/kg once
[3] = Stability (survival rate) in acidic aqueous solution by HPLC; settings: pH 3, 80° C., 7 hours, comparative compound = α-L-aspartyl-D-α-aminobutyric acid (S)-α-ethylbenzylamide
Experimental: With respect to stability in an acidic aqueous solution, the percentage (survival rate) of the compound still surviving in an acidic aqueous solution having a pH of 3 at 80° C. for 7 hours by HPLC was measured.

SMILES	Sweetness Potency [1]	sweetness potency value [1]	further results
CC[C@H](NC(=O)C(C)(CC)NC(=O)[C@@H](N)CC(=O)O)c1ccccc1 (mixture of isomers) [Example 10, α-L-aspartyl-DL-isovaline (S)-α-ethylbenzylamide]	100	100 times that of sugar	–
CC[C@H](NC(=O)C(NC(=O)[C@@H](N)CC(=O)O)c1ccco1)c1ccccc1 (mixture of isomers)	–	–	toxicity [2]: no problematic toxicity
CC[C@H](NC(=O)C(NC(=O)[C@@H](N)CC(=O)O)c1ccco1)c1ccccc1 (mixture of isomers) [Example 4, α-L-aspartyl-DL-furylglycine (S)-α-ethylbenzylamide]	1200	1200 times that of sugar	sweetness potency value ([1]; listed as α-L-aspartyl-DL-furylglycine(S)-α-ethylbenzylamide): about 1200 times that of sugar
COC[C@H](NC(=O)C(NC(=O)[C@@H](N)CC(=O)O)c1ccco1)c1ccccc1 (mixture of isomers) [Example 5, α-L-aspartyl-DL-furylglycine (R)-α-methoxymethylbenzylamide]	1200	1200 times that of sugar	–
COC[C@H](NC(=O)C(NC(=O)[C@@H](N)CC(=O)O)c1ccco1)c1ccccc1 (mixture of isomers) [α-L-aspartyl-DL-furylglycine (R)-α-methoxymethylbenzylamide]	–	about 1200 times that of sugar	toxicity [2]: no problematic toxicity
CCC(NC(=O)C(CC(C)C)NC(=O)C(N)CC(=O)O)c1ccccc1 [D-Leu (S) Et Ph]	100	–	–
CCC(NC(=O)C(NC(=O)C(N)CC(=O)O)C(C)OC)c1ccccc1 [D-Thr(Me) (S) Et Ph]	150	–	–
CCC(NC(=O)C(NC(=O)C(N)CC(=O)O)C(C)CC)c1ccccc1 [D-allo-Ile (S) Et Ph]	90	–	–
CC[C@H](NC(=O)[C@H](NC(=O)[C@@H](N)CC(=O)O)[C@H](C)O)c1ccccc1 [Example 1, α-L-aspartyl-D-threonine (S)-α-ethylbenzylamide]	1300	1300 times that of sugar	sweetness potency value ([1]; listed as α-L-aspartyl-D-threonine(S)-α-ethylbenzylamide): about 1300 times that of sugar; toxicity [2]: no problematic toxicity
COC[C@H](NC(=O)[C@H](NC(=O)[C@@H](N)CC(=O)O)[C@H](C)O)c1ccccc1 [Example 2, α-L-aspartyl-D-threonine (R)-α-methoxymethylbenzylamide]	500	500 times that of sugar	–
CC[C@H](NC(=O)[C@H](NC(=O)[C@@H](N)CC(=O)O)[C@H](C)CC)c1ccccc1 [Example 3, α-L-aspartyl-D-isoleucine (S)-α-ethylbenzylamide]	500	500 times that of sugar	–
CC[C@H](NC(=O)C1(NC(=O)[C@@H](N)CC(=O)O)CCCC1)c1ccccc1 [Example 6, α-L-aspartyl-α-aminocyclopentanecarboxylic acid (S)-α-ethylbenzylamide]	1000	1000 times that of sugar	stability (survival rate in an acidic aqueous solution) relative to comparative compound [3]: about 10 times that of the comparative
CC[C@H](NC(=O)C1(NC(=O)[C@@H](N)CC(=O)O)CCCCC1)c1ccccc1 [Example 7, α-L-aspartyl-α-aminocyclohexanecarboxylic acid (S)-α-ethylbenzylamide]	1000	1000 times that of sugar	stability (survival rate in an acidic aqueous solution) relative to comparative compound [3]: about 9 times that of the comparative
CC[C@H](NC(=O)C(CC)(CC)NC(=O)[C@@H](N)CC(=O)O)c1ccccc1 [Example 9, α-L-aspartyl-α,α-diethylglycine (S)-α-ethylbenzylamide]	200	1000 times that of sugar	–
COC[C@H](NC(=O)[C@H](NC(=O)[C@@H](N)CC(=O)O)C(C)C)c1ccccc1 [Example 11, α-L-aspartyl-D-valine (R)-α-methoxymethylbenzylamide]	1300	1300 times that of sugar	–
COC[C@H](NC(=O)[C@H](NC(=O)[C@@H](N)CC(=O)O)c1ccccc1)c1ccccc1 [Example 12, α-L-aspartyl-D-phenylglycine (R)-α-methoxymethylbenzylamide]	500	500 times that of sugar	–
COC[C@H](NC(=O)C1(NC(=O)[C@@H](N)CC(=O)O)CCCCC1)c1ccccc1 [Example 13, α-L-aspartyl-α-aminocyclohexanecarboxylic acid (R)-α-methoxymethylbenzylamide]	250	250 times that of sugar	–
COC[C@@H](NC(=O)[C@H](NC(=O)[C@@H](N)CC(=O)O)C(C)C)C(C)C [Example 14, α-L-aspartyl-D-valine (S)-α-methoxymethyl-β-methylpropylamide]	40	40 times that of sugar	–
CCOC[C@H](NC(=O)[C@H](NC(=O)[C@@H](N)CC(=O)O)C(C)C)c1ccccc1 [Example 15, α-L-aspartyl-D-valine (R)-α-ethoxymethylbenzylamide]	500	500 times that of sugar	–
CC[C@@H](NC(=O)[C@@H](N)CC(=O)O)C(=O)N[C@@H](COC)c1ccccc1 [Example 16, α-L-aspartyl-D-α-aminobutyric acid (R)-α-methoxymethylbenzylamide]	1200	1200 times that of sugar	–
CC[C@@H](C)[C@@H](NC(=O)[C@@H](N)CC(=O)O)C(=O)N[C@@H](COC)c1ccccc1 [Example 17, α-L-aspartyl-D-isoleucine (R)-α-methoxymethylbenzylamide]	500	500 times that of sugar	–
COC[C@H](NC(=O)[C@@H](C)NC(=O)[C@@H](N)CC(=O)O)c1ccccc1 [Example 18, α-L-aspartyl-D-alanine (R)-α-methoxymethylbenzylamide]	300	300 times that of sugar	–
COC[C@H](NC(=O)[C@H](NC(=O)[C@@H](N)CC(=O)O)C(C)C)C(C)C [Example 19, α-L-aspartyl-D-valine (R)-α-methoxymethyl-β-methylpropylamide]	30	30 times that of sugar	–
COC[C@@H](NC(=O)[C@H](NC(=O)[C@@H](N)CC(=O)O)C(C)C)c1ccccc1 [Example 20, α-L-aspartyl-D-valine (S)-α-methoxymethylbenzylamide]	< 20	not more than 20 times that of sugar	–
COC[C@H](NC(=O)[C@H](NC(=O)[C@@H](N)CC(=O)O)C(C)C)c1ccccc1 [α-L-aspartyl-D-valine (R)-α-methoxymethylbenzylamide]	–	about 1300 times that of sugar	toxicity [2]: no problematic toxicity
CC[C@@H](NC(=O)[C@@H](N)CC(=O)O)C(=O)N[C@@H](COC)c1ccccc1 [α-L-aspartyl-D-α-aminobutyric acid (R)-α-methoxymethylbenzyl]	–	about 1200 times that of sugar	–
CC[C@H](NC(=O)C1(NC(=O)[C@@H](N)CC(=O)O)CCCCC1)c1ccccc1 [α-L-aspartyl-α-aminocyclohexanecarboxylic acid (S)-α-ethylbe]	–	about 1000 times that of sugar	toxicity [2]: no problematic toxicity; stability (survival rate in an acidic aqueous solution) relative to comparative compound [3]: about 9 times that of the comparative compound
CC[C@H](NC(=O)C1(NC(=O)[C@@H](N)CC(=O)O)CCCC1)c1ccccc1 [α-L-aspartyl-α-aminocyclopentanecarboxylic acid (S)-α-ethylb]	–	about 1000 times that of sugar	stability (survival rate in an acidic aqueous solution) relative to comparative compound [3]: about 10 times that of the comparative compound
